US20130296358A1, “3-SPIROCYCLIC PIPERIDINE DERIVATIVES AS GHRELIN RECEPTOR AGONISTS” (priority 2012, published 2013)

Experiments:
[1] = Aqueous solubility of crystalline L-malate salt forms versus free base; assay type: physicochemical; conditions: compared to the free base amorphous form
rat fundus = assay: Rat fundus contractility assay (EFS-induced contraction of muscle strips); conditions: for EC50: increase of EFS-induced contraction, mean of preparations from at least 3 animals
Method: Male Sprague Dawley rats (180-250 g) were culled by cervical dislocation and the fundus was removed. Each fundus was placed on a Krebs Henseleit (KH) buffer soaked dissection dish and cut along the long curvature to form a flattened sheet that was pinned in each corner. Four adjacent longitudinal strips (10×3 mm) were cut and the mucosa removed by sharp dissection. Each muscle strip was mounted in a 10 ml organ bath containing oxygenated KH at 37° C. Each strip was connected to an isometric force transducer, calibrated initially using a 5 g weight. The signal (g tension) was amplified and responses recorded by a Powerlab data capture system, connected to a computer running Labchart software (version 5.0). Tissues were placed under 1 g tension for an equilibration period of 30 min or until the baseline tension had stabilised. Carbachol (CCh, 100 nM) was then administered to establish the maximum contractile response of each preparation. Tissues were washed thoroughly and left for 30 min to re-equilibrate. Next, the muscle strips underwent electrical field stimulation (EFS). Maximal EFS pulse trains of 12V, 5 Hz, 0.1 msec pulse width, for 2 sec every 60 sec were applied until consistent electrically-stimulated phasic contractions were recorded. The voltage was then reduced in 1V increments until a consistent submaximal (EC50-75) EFS response was observed. Ghrelin (100 nM) was administered and left until a maximum response was obtained. Tissues were then washed thoroughly and left for 30 min. Once the EFS-induced contraction had re-stabilised, cumulative additions (10 nM-10 μM) of each test compound were administered. Individual responses were calculated by determining the peak of the EFS-induced contraction minus the baseline. […] The mean EC50 value for compounds was generated from data obtained on stomach preparations from at least 3 different animals.

[2] = biological target: T1, human recombinant ghrelin receptor (GHS-R1a) (Homo sapiens, UniProt Q92847); assay: Calcium assay, CHO-K1 cells expressing hGHS-R1a (Fluo-4); assay type: cell-based; conditions: CHO-K1, relative to the Emax induced by MK-0677 (defined as 100%); read-out: hGHS-R1a Ca assay Emax/%
T1 construct: host or cells: CHO-K1
T1 sequence (Q92847 whole entry): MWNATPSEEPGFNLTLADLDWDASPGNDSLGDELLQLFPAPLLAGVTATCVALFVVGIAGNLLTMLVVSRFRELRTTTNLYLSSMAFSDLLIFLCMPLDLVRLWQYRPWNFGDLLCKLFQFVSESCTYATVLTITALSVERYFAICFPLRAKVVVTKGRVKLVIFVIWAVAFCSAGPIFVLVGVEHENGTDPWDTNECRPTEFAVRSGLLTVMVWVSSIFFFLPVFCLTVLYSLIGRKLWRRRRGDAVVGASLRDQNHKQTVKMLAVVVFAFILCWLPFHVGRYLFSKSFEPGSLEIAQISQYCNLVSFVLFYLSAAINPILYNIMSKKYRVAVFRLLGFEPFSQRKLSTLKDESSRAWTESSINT
Method: (§1) Chinese hamster ovary (CHO-K1) cells expressing human recombinant ghrelin receptor (GHS-R1a) were purchased from Euroscreen (ES-410-C) and propagated in UltraCHO medium containing glutamine and supplemented with 1% heat inactivated foetal calf serum (FCS), 100 U/ml penicillin, 100 mg/l streptomycin and 0.8 g/l geneticin. Cells were sub-cultured twice a week with a 1:10 dilution. For passaging, cells were washed with 1× DPBS without calcium and magnesium, trypsinised for 10 min with 0.05% Trypsin/EDTA and resuspended in cell culture medium.
Cells were diluted to achieve 1×10^6 cells/ml, seeded in 384-well black clear bottom CellBind plates at 25000 cells/well (25u1) and incubated overnight at 37° C./5% CO2 Cells were expected to be 85-90% confluent on the day of assay (checked under the microscope) to ensure a high quality assay. Media was manually removed and 40 μl of loading solution containing probenecid and Fluo-4 no wash dye (a calcium indicator, Invitrogen F36206) were added to each well. After 30 min at 37° C. followed by another 30 min at RT, cpds were added to the wells. To generate a dose response up to 30 μM, 10 mM compound stocks in 100% (v/v) DMSO were firstly diluted in 50% (v/v) DMSO. Then, serial dilutions aimed at a full logarithmic dose responses (8 point) were performed in assay buffer [1×HBSS, 20 mM Hepes, 0.1% (w/v) BSA] to give 2.5% (v/v) DMSO and 5× final compound concentrations. The final assay DMSO concentration was 0.5% (v/v). After loading the cells with Fluo-4 containing solution, plates were read on a CeIlLux instrument (Perkin Elmer). A protocol set up to add 10 μl of 5× compound and to read the plate for 60sec after adding the compound at 17th sec was used. Fluorescence excitation took place at 494 nm and emission at 516 nm. EC50 values of agonists were calculated by fitting the percent stimulation over background [(Max-Min)/Min] using the nonlinear logistic function of the Prism 5 software (GraphPad, USA).

[3] = biological target: T1, human recombinant ghrelin receptor (GHS-R1a); assay: cAMP assay (HTRF), CHO-hGHS-R1a cells; assay type: cell-based; conditions: relative to the ghrelin response (defined as 100%)
Method: as §1
The Homogeneous Time-Resolved Fluorescence (HTRF) cAMP dynamic 2 kit (Cisbio International, France) was used as follows. CHO-hGHS—R1a or CHO-rGHS—R1a cells were seeded in a volume of 25 μl culture media at 10,000 cells/well (400,000 cells/ml) in Greiner white 384-well high volume plates and incubated overnight (18-24 h) at 37° C./5% CO2. Then, media was removed and 6 μl assay buffer [HBSS, 10 mM Hepes, 0.2% (w/v) BSA, 1.7 mM IBMX, (pH7.4)] were added to the wells. To generate a dose response up to 30 μM, 10 mM compound stocks in 100% (v/v) DMSO were firstly diluted in 50% (v/v) DMSO followed by a further dilution into assay buffer. Then, 4 μl of 2.5× compound (dose response as 9 point log serial dilution in assay buffer from 30 μM as maximum concentration) were added to each well achieving a final DMSO assay concentration of 0.8% (v/v). 0.1 μM forskolin was added as positive control. After 30 min (rGHS—R1a cell line) or 60 min (hGHS—R1a cell line) incubation at 37° C./5% CO2, 5 μl of cAMP-d2 and 5 μl of anti-cAMP antibody-cryptate, (both made in lysis buffer), were added to the plate followed by 1 h incubation at RT. During this time, cAMP produced by the cells competed with cAMP-d2 for the anti-cAMP antibody-cryptate molecule. Then, the plate was read on the Pherastar instrument (BMG, Germany) at two different emission wavelengths ([…]). Increasing levels of endogenous cAMP produced by cells could be followed by a decrease of FRET fluorescent signal and viceversa. Values represented by a change in arbitrary fluorescence ratios (665/620) were converted into cAMP concentrations by using a standard curve, the reagents for which were supplied with the kit. EC50 values of agonists were calculated using the nonlinear logistic function of the Prism 5 software (GraphPad, USA). Emax were expressed as relative values of the ghrelin response, which was defined as 100%.

[4] = Rattus norvegicus, relative to the response to ghrelin (100 nM), defined as 100%

Structure (SMILES) | aqueous solubility [1] | EC50 (rat fundus) | Emax [2] | Emax [3] | EC50 (rat fundus; Rattus norvegicus) | Emax/% (rat fundus; relative to the response to ghrelin (100 nM), defined as 100%) | Emax (rat fundus; [4])
CN1C[C@@H](c2ccc(F)cc2)[C@@]2(CCCN(C(=O)[C@@H](COCc3ccccc3)NC(=O)C(C)(C)N)C2)C1=O.O=C(O)C[C@H](O)C(=O)O [2-amino-N-((2R)-3-(benzyloxy)-1-((4S,5R)-4-(4-fluorophenyl)-2-methyl-1-oxo-2,7-diazaspiro[4.5]decan-7-yl)-1-oxopropan-2-yl)-2-methylpropanamide L-malate salt] | increased aqueous solubility |  |  |  |  |  | 
Cc1ccc(C2CN(C)C(=O)C23CCCN(C(=O)[C@@H](COCc2ccccc2)NC(=O)C(C)(C)N)C3)cc1.O=C(O)C[C@H](O)C(=O)O (stereo partly drawn) [2-amino-N-((2R)-3-(benzyloxy)-1-(2-methyl-1-oxo-4-p-tolyl-2,7-diazaspiro[4.5]decan-7-yl)-1-oxopropan-2-yl)-2-methylpropanamide L-malate salt] | increased aqueous solubility |  |  |  |  |  | 
CN1C[C@@H](c2ccccc2)[C@@]2(CCCN(C(=O)[C@@H](COCc3ccccc3)NC(=O)C(C)(C)N)C2)C1=O.O=C(O)C[C@H](O)C(=O)O [2-Amino-N—[(R)-1-benzyloxymethyl-2-((4S,5R)-2-methyl-1-oxo-4-phenyl-2,7-diaza-spiro[4.5]dec-7-yl)-2-oxo-ethyl]-2-methyl-propionamide L-malate salt] | increased aqueous solubility |  |  |  |  |  | 
CN1C[C@H](c2ccccc2)[C@]2(CCCN(C(=O)[C@@H](COCc3ccccc3)NC(=O)C(C)(C)N)C2)C1=O (single isomer, unassigned) [Example 1.0(i)] |  |  | 97% | 130% | 1700 nM |  | 104%
CN1CC(c2ccc(F)cc2)C2(CCCN(C(=O)[C@@H](Cc3c[nH]c4ccccc34)NC(=O)C(C)(C)N)C2)C1=O (single isomer, unassigned) [Example 1.11] |  |  | 102% | 289% | 24 nM |  | 99%

Continued, in another order:

aqueous solubility [1] | EC50 (rat fundus) | Emax [2] | Emax [3] | EC50 (rat fundus; Rattus norvegicus) | Structure (SMILES) | Emax/% (rat fundus; relative to the response to ghrelin (100 nM), defined as 100%) | Emax (rat fundus; [4])
 | 19 nM | 103% | 176% |  | CN1CC(c2ccccc2)C2(CCCN(C(=O)[C@@H](CCCc3ccccc3)NC(=O)C(C)(C)N)C2)C1=O (single isomer, unassigned) [Example 1.32] | 109% | 
 |  | 86% | 164% | 59 nM | CC(C)(C)CN1CC(c2ccccc2)C2(CCCN(C(=O)[C@@H](COCc3ccccc3)NC(=O)C(C)(C)N)C2)C1=O (single isomer, unassigned) [Example 1.40] |  | 117%
 | 17 nM | 99% | 193% |  | CN1C(=O)C2(CCCN(C(=O)[C@@H](COCc3ccccc3)NC(=O)C(C)(C)N)C2)C1c1ccccc1 (single isomer, unassigned) [Example 2.0(ii)] |  | 63%
